The values that follow come from patent US20200392116A1, “SUBSTITUTED HETEROCYCLES AS c-MYC TARGETING AGENTS” (NORTHWESTERN UNIVERSITY, priority 2019, published 2020).

A short description of this experiment: Potency code of Table 2 (assay not stated).

As for `Oc1cc(OCc2ccc(Cl)cc2)ccc1-c1cc(C(F)(F)F)nc(-c2cccc(C(F)(F)F)c2)n1` [NUCC-0200500], the Potency code entry is reported as “+ (>40 +)”.
With `Oc1cc(OCc2ccc(Cl)cc2)ccc1-c1cc(C(F)(F)F)nc(-c2cc(C(F)(F)F)cc(C(F)(F)F)c2)n1` [NUCC-0200501], the Potency code result is “+ (>40 +)”.
As for `Nc1nc(-c2ccc(OCc3ccc(Cl)cc3)cc2O)cc(C(F)(F)F)n1` [NUCC-0200502], the Potency code entry was “+ (>40 +)”.
The value for `Oc1cc(OCc2ccc(Cl)cc2)ccc1-c1cc(C(F)(F)F)nc(-c2ccc(F)cc2)n1` [NUCC-0200503] was “+ (>40 +)”; that for `N#Cc1cccc(-c2c(OCc3ccc(Cl)cc3)ccc(-c3cc(C(N)=O)[nH]n3)c2O)c1` [NUCC-0200557] was “+ (>40 +)”.
The value for `Cn1nc(-c2ccc(OCc3ccc(Cl)cc3)c(-c3cccc(C#N)c3)c2O)cc1C(N)=O` [NUCC-0200558] was “++++ (<10 ++++)”.
The value for `Oc1cc(Nc2ccc(F)c(F)c2)ccc1-c1cc(C(F)(F)F)[nH]n1` [NUCC-0200559] was “++ (30-40 ++)”; that for `Cn1nc(-c2ccc(Nc3ccc(F)c(F)c3)cc2O)cc1C(F)(F)F` [NUCC-0200560] was “+ (>40 +)”; that for `Oc1cc(Nc2ccc3c(c2)OCO3)ccc1-c1cc(C(F)(F)F)[nH]n1` [NUCC-0200561] was “+ (>40 +)”.
`Cn1nc(-c2ccc(Nc3ccc4c(c3)OCO4)cc2O)cc1C(F)(F)F` [NUCC-0200562]: the Potency code result is recorded as “+ (>40 +)”.
The value for `O=CNc1ccc(Nc2ccc(-c3cc(C(F)(F)F)[nH]n3)c(O)c2)cc1` [NUCC-0200563] was “+ (>40 +)”.
The value for `Cn1nc(-c2ccc(Nc3ccc(NC=O)cc3)cc2O)cc1C(F)(F)F` [NUCC-0200564] was “+ (>40 +)”.
The value for `CN1CCN(c2ccc(-c3cc(C(F)(F)F)[nH]n3)c(O)c2)CC1` [NUCC-0200567] was “+ (>40 +)”; that for `CN1CCN(c2ccc(-c3cc(C(F)(F)F)n(C)n3)c(O)c2)CC1` [NUCC-0200568] was “+ (>40 +)”; that for `Oc1cc(Nc2ccc(-n3ccnc3)cc2)ccc1-c1cc(C(F)(F)F)[nH]n1` [NUCC-0200569] was “+ (>40 +)”.
Regarding `Oc1cccc(COc2ccc(Cl)cc2)c1-c1cc(C(F)(F)F)n[nH]1` [NUCC-0200570], the Potency code result is on record as “+ (>40 +)”.
The value for `N#Cc1cccc(-c2c(C(F)(F)F)n[nH]c2-c2cc(OCc3ccc(Cl)cc3)ccc2O)c1` [NUCC-0200571] was “+ (>40 +)”; that for `Cc1ccc(-c2c(C(F)(F)F)n[nH]c2-c2cc(OCc3ccc(Cl)cc3)ccc2O)cc1` [NUCC-0200572] was “+ (>40 +)”; that for `Oc1ccc(OCc2ccc(Cl)cc2)cc1-c1cc(C(F)(F)F)n[nH]1` [NUCC-0200573] was “+ (>40 +)”.
The value for `Oc1ccccc1-c1cc(C(F)(F)F)n[nH]1` [NUCC-0200574] was “+ (>40 +)”.
The value for `Oc1ccc(OCc2ccc(Cl)cc2)cc1-c1[nH]nc(C(F)(F)F)c1-c1ccc(F)cc1` [NUCC-0200575] was “++++ (<10 ++++)”; that for `Oc1ccc(OCc2ccc(Cl)cc2)cc1-c1[nH]nc(C(F)(F)F)c1-c1ccccc1Cl` [NUCC-0200576] was “++++ (<10 ++++)”; that for `NC(=O)c1cc(-c2ccc(Nc3ccc(Cl)cc3)cc2O)n[nH]1` [NUCC-0200677] was “+ (>40 +)”.
Take `N#Cc1cc(-c2ccc(Nc3ccc(Cl)cc3)cc2O)n[nH]1` [NUCC-0200678]: the Potency code result is reported as “+ (>40 +)”.
The value for `Oc1cc(Oc2ccc(Cl)cc2)ccc1-c1cc(C(F)(F)F)[nH]n1` [NUCC-0200679] was “++ (30-40 ++)”; that for `CCc1ccc(Oc2c(-c3ccc(Nc4ccc(Cl)cc4)cc3O)n[nH]c2C(F)(F)F)cc1` [NUCC-0200680] was “+ (>40 +)”; that for `CCc1ccc(Oc2c(-c3ccc(Oc4ccc(Cl)cc4)cc3O)n[nH]c2C(F)(F)F)cc1` [NUCC-0200681] was “++++ (<10 ++++)”.
Turning to `CCc1ccc(Oc2c(-c3ccc(O)cc3N)nn(C)c2C(F)(F)F)cc1` [NUCC-0200682], the Potency code result is given as “+ (>40 +)”.
The value for `CCc1ccc(Oc2c(-c3ccccc3O)n[nH]c2C(F)(F)F)cc1` [NUCC-0200683] was “+++ (10-30 +++)”.
With `CCc1ccc(Oc2c(-c3ccccc3O)nn(C)c2C(F)(F)F)cc1` [NUCC-0200684], the Potency code entry is reported as “+ (>40 +)”.
The value for `Oc1ccccc1C1=NNC(c2ccccc2)C1` (stereo not shown) [NUCC-0200685] was “+ (>40 +)”; that for `Oc1c(-c2cc(C(F)(F)F)n[nH]2)ccc(OCc2ccc(Cl)cc2)c1-c1ccc2c(c1)OCCO2` [NUCC-0200686] was “+ (>40 +)”.
The value for `Cn1nc(C(F)(F)F)cc1-c1ccc(O)cn1` [NUCC-0200687] was “+ (>40 +)”; that for `Cn1nc(C(F)(F)F)cc1-c1ccc(N)cn1` [NUCC-0200688] was “+ (>40 +)”.
The value for `Cn1nc(C(F)(F)F)cc1-c1cnc(O)cn1` [NUCC-0200689] was “+ (>40 +)”; that for `Cn1nc(C(F)(F)F)cc1-c1ccc(OCc2ccc(Cl)cc2)cn1` [NUCC-0200690] was “+ (>40 +)”.
`Cn1nc(C(F)(F)F)cc1-c1ccc(NCc2ccc(Cl)cc2)cn1` [NUCC-0200691]: the Potency code result was “+ (>40 +)”.
The value for `Cn1nc(C(F)(F)F)cc1-c1cnc(OCc2ccc(Cl)cc2)cn1` [NUCC-0200692] was “+ (>40 +)”.
As for `Oc1cc(Nc2ccc(Cl)c(Cl)c2)ccc1-c1cc(C(F)(F)F)[nH]n1` [NUCC-0200721], the Potency code entry is “++++ (<10 ++++)”.
The value for `c1ccc(COc2ccccc2-c2nn[nH]c2-c2ccccc2)cc1` [NUCC-0200722] was “+ (>40 +)”.
The value for `Cn1nc(C(F)(F)F)cc1-c1ccc(O)c(-c2cc(C(F)(F)F)cc(C(F)(F)F)c2)c1O` [NUCC-0200723] was “++ (30-40 ++)”; that for `Cn1nc(-c2ccc(O)c(-c3cc(C(F)(F)F)cc(C(F)(F)F)c3)c2O)cc1C(F)(F)F` [NUCC-0200724] was “+ (>40 +)”.
For `Oc1c(-c2cc(C(F)(F)F)[nH]n2)ccc(OCc2ccc(Cl)cc2)c1-c1ccc(C(F)(F)F)cc1` [NUCC-0200725], the Potency code result is “+ (>40 +)”.
The value for `Cn1nc(C(F)(F)F)cc1-c1ccc(OCc2ccc(Cl)cc2)c(-c2ccc(C(F)(F)F)cc2)c1O` [NUCC-0200726] was “+ (>40 +)”; that for `Cn1nc(-c2ccc(OCc3ccc(Cl)cc3)c(-c3ccc(C(F)(F)F)cc3)c2O)cc1C(F)(F)F` [NUCC-0200727] was “+ (>40 +)”.
The value for `Oc1c(-c2cc(C(F)(F)F)[nH]n2)ccc(OCc2ccc(Cl)cc2)c1-c1ccc(C(F)(F)F)c(Cl)c1` [NUCC-0200728] was “+ (>40 +)”.
The value for `Cn1nc(-c2ccc(OCc3ccc(Cl)cc3)c(-c3ccc(C(F)(F)F)c(Cl)c3)c2O)cc1C(F)(F)F` [NUCC-0200729] was “+ (>40 +)”.
Take `Oc1c(-c2cc(C(F)(F)F)[nH]n2)ccc(OCc2ccc(Cl)cc2)c1-c1cccc(C(F)(F)F)c1` [NUCC-0200730]: the Potency code entry is on record as “+ (>40 +)”.
The value for `Cn1nc(-c2ccc(OCc3ccc(Cl)cc3)c(-c3cccc(C(F)(F)F)c3)c2O)cc1C(F)(F)F` [NUCC-0200731] was “+ (>40 +)”.
